For one assay, the system named is HDAC. The experiment in a line: In vitro fluorescent histone deacetylase assay (Biomol HDAC fluorescent activity kit, HeLa cell nuclear extract). In kind it is biochemical. As to conditions: 100 μM compound; HeLa cell nuclear extract as source of HDAC activity; 50 μM substrate, 10 min at room temperature. The procedure:
Histone deacetylase (HDAC) activity assays were performed using the HDAC fluorescent activity assay/drug discovery kit (Biomol Research Laboratories, Plymouth Meeting, Pa.) essentially according to the manufacturer's instructions. The included HeLa cell nuclear extract, which contains a mosaic of HDAC enzymes and other nuclear factors, was used as the source of HDAC activity. The final substrate concentration in the assay mixture was 50 μM. The reaction was allowed to proceed for 10 min at room temperature before stopping the reaction. Test compounds were prepared as 20 mM stock solutions in DMSO (Molecular Biology grade, Sigma-Aldrich Co., St. Louis, Mo.) and stored at −70° C. Serial dilutions of test compounds were prepared in assay buffer immediately prior to testing. DMSO was determined in a separate trial to have no significant effect on the activity of this assay at concentrations up to 5%; the final DMSO concentration in the wells was no more than 2% and therefore DMSO effects were safely neglected. Assays were performed in white polystyrene 96-well half-area assay plates (Corning, Corning, N.Y.) and measured on a Wallace 1420 fluorescent plate reader (Wallac Oy, Turku, Finland) with an excitation wavelength of 355 nm, an emission wavelength of 460 nm, and a 1 sec signal averaging time.

In another assay the test system is HCT116 cells. The experiment in a line: Whole cell cytotoxicity assay: Sulforhodamine B. Conditions: Homo sapiens, HCT-116; 100 μM compound; 48 hours incubation with drug; Sulforhodamine B staining; read-out: % Inhibition of HCT116 cell growth @ 100 μM. In kind it is cell-based. The procedure: [The source words this procedure for another cell line and reports this cell line under the same test.] The following procedure can be found on the Developmental Therapeutics Program NCl/NIH web site at http://dtp.nci.nih.gov/brancehes/btb/ivclsp.html. • 1. Human tumor cell lines of HT29, A549 and MCF7 are grown in DMEM containing 10% fetal bovine serum and 2 mM L-glutamine. Cells are plated in a 96 well plate at a density of 5000 cells per well in 100 μL of growth medium and incubated at 37° C., 5% CO2, for 24 hours prior to the addition of experimental compounds. • 2. Experimental drugs are solubilized in DMSO for a final concentration of 20 mM immediately prior to use. Drugs are further diluted in growth media for a total of nine drug concentrations and a growth control. At the 24 hour time point, one plate of cells is fixed in situ with TCA as a measurement of the cell population at time zero, or the time of drug addition. • 3. The plates are further incubated with drug for an additional 48 hours. • 4. The cells are fixed in situ by gently aspirating off the culture media and then adding 50 μL of ice cold 10% TCA per well and incubated at 4° C. for 60 minutes. The plates are washed with tap water five times and allowed to air dry for 5 minute. • 5. 50 μL of a 0.4% (w/v) Sulforhodamine B solution in 1% (v/v) acetic acid is added per well and incubated for 30 minutes at room temperature. • 6. Following staining, plates are washed five times with 1% acetic acid to remove any unbound dye and then allowed to air dry for 5 minutes. • 7. Stain is solubilized with 100 μL of 10 mM Tris pH 10.5 per well and placed on an orbital rotator for 5 minutes. • 8. Absorbance is read at 570 nm.

Usually inhibition stands for how much of the control response was suppressed. Turning to `O=C(/C=C/c1ccc(N2CCc3c([nH]c4ccccc34)C2)cc1)NO` [Example 22, (2E)-N-hydroxy-3-[4-(1,3,4,9-tetrahydro-2H-b-carbolin-2-yl)phenyl]acrylamide], the “% Inhibition of HDAC @ 100 μM” value in the assay with HDAC turned out to be 98.2%. The inhibition at 100 µM with HCT116 cells is 98.2%.
For the molecule `O=C(NO)c1cnc(N2CCc3c(n(CCN4CCCC4)c4ccccc34)C2)nc1` [Example 23, N-hydroxy-2-{9-[2-pyrrolidin-1-ylethyl]-1,3,4,9-tetrahydro-2H-b-carbolin-2-yl}pyrimidine-5-carboxamide], the “% Inhibition of HDAC @ 100 μM” value in the assay with HDAC was 99.3%. For the same molecule, the inhibition at 100 µM with HCT116 cells was found to be 98.1%.
`O=C(NO)c1cnc(N2CCc3c(n(CCN4CCCCC4)c4ccccc34)C2)nc1` [Example 24, N-hydroxy-2-[9-(2-piperidin-1-ylethyl)-1,3,4,9-tetrahydro-2H-b-carbolin-2-yl]pyrimidine-5-carboxamide]: the “% Inhibition of HDAC @ 100 μM” value with HDAC turned out to be 99%. The inhibition at 100 µM in the assay on HCT116 cells worked out at 98.9%.
Taken in the same sequence, the figures for `O=C(NO)c1cnc(N2CCc3c(n(CCN4CCOCC4)c4ccccc34)C2)nc1` [Example 25, N-hydroxy-2-[9-(2-morpholin-4-ylethyl)-1,3,4,9-tetrahydro-2H-b-carbolin-2-yl]pyrimidine-5-carboxamide] were 98% and 94%.
The matching figures for `O=C(NO)c1cnc(N2CCc3c(n(S(=O)(=O)c4ccccc4)c4ccccc34)C2)nc1` [Example 26, N-hydroxy-2-[9-(phenylsulfonyl)-1,3,4,9-tetrahydro-2H-b-carbolin-2-yl]pyrimidine-5-carboxamide]: 98.9% and 99%.
Regarding `Cn1c2c(c3ccccc31)CCN(c1ncc(C(=O)NO)cn1)C2` [Example 27, N-hydroxy-2-(9-methyl-1,3,4,9-tetrahydro-2H-b-carbolin-2-yl)pyrimidine-5-carboxamide], the “% Inhibition of HDAC @ 100 μM” value with HDAC is recorded as 98.3%. Also, the inhibition at 100 µM with HCT116 cells turned out to be 98.9%.
Taken in the same sequence, the figures for `O=C(NO)c1cnc(N2CCc3c(n(Cc4ccccc4)c4ccccc34)C2)nc1` [Example 28, N-hydroxy-2-(9-benzyl-1,3,4,9-tetrahydro-2H-b-carbolin-2-yl)pyrimidine-5-carboxamide] were 95.2% and 98.7%.
Taken in the same sequence, the figures for `CC(=O)n1c2c(c3ccccc31)CCN(c1ncc(C(=O)NO)cn1)C2` [Example 29, 2-(9-acetyl-1,3,4,9-tetrahydro-2H-b-carbolin-2-yl)-N-hydroxypyrimidine-5-carboxamide] were 99.8% and 98%.
As to `O=C(NO)c1cnc(N2CCc3c(n(CN4CCCC4)c4ccccc34)C2)nc1` [Example 30, N-hydroxy-2-{9-[2-pyrrolidin-1-ylmethyl]-1,3,4,9-tetrahydro-2H-b-carbolin-2-yl}pyrimidine-5-carboxamide], in the assay on HDAC, the “% Inhibition of HDAC @ 100 μM” value was found to be 98.1%. Moreover, the inhibition at 100 µM in the assay on HCT116 cells came to 96.8%.
The matching figures for `COc1ccc2c(c1)CN(c1ncc(C(=O)NO)cn1)CC2` [Example 31, 2-(7-methoxy-3,4,dihydroisoquinolin-2(1H)-yl)-N-hydroxypyrimidine-5-carboxamide]: 100% and 99.5%.
The matching figures for `O=C(NO)c1cnc(N2Cc3cccc4cccc(c34)C2)nc1` [Example 32, 2-(1H-benzo[de]isoquinolin-2(3H)-yl)-N-hydroxypyrimidine-5-carboxamide]: 96.6% and 94.6%.
Taken in the same sequence, the figures for `Cc1cc2c3c([nH]c2cc1Cl)CCN(c1ncc(C(=O)NO)cn1)C3` [Example 34, N-hydroxy-2-(7-chloro-8-methyl-1,3,4,5-tetrahydro-2H-pyrido[4,3-b]indol-2-yl)pyrimidine-5-carboxamide] were 99.1% and 99.3%.
Turning to `O=C(NO)c1cnc(N2CCc3[nH]c4cc(F)ccc4c3C2)nc1` [Example 35, N-hydroxy-2-(7-fluoro-1,3,4,5-tetrahydro-2H-pyrido[4,3-b]indol-2-yl)pyrimidine-5-carboxamide], the “% Inhibition of HDAC @ 100 μM” value in the assay with HDAC is reported as 99.9%. In addition, in the assay on HCT116 cells, the inhibition at 100 µM is 97.3%.
Taken in the same sequence, the figures for `Cc1ccc2c3c([nH]c2c1)CCN(c1ncc(C(=O)NO)cn1)C3` [Example 36, N-hydroxy-2-(7-methyl-1,3,4,5-tetrahydro-2H-pyrido[4,3-b]indol-2-yl)pyrimidine-5-carboxamide] were 99.8% and 98.3%.
In the case of `O=C(NO)c1cnc(N2CCc3[nH]c4ccc([N+](=O)[O-])cc4c3C2)nc1` [Example 37, N-hydroxy-2-(8-nitro-1,3,4,5-tetrahydro-2H-pyrido[4,3-b]indol-2-yl)pyrimidine-5-carboxamide], in the assay with HDAC, the “% Inhibition of HDAC @ 100 μM” value was 99.9%. Besides, the inhibition at 100 µM in the assay with HCT116 cells was 97.1%.
For `CC(C)c1ccc2[nH]c3c(c2c1)CN(c1ncc(C(=O)NO)cn1)CC3` [Example 38, N-hydroxy-2-{8-isopropyl-1,3,4,5-tetrahydro-2H-pyrido[4,3-b]indol-2-yl}pyrimidine-5-carboxamide], the “% Inhibition of HDAC @ 100 μM” value with HDAC worked out at 99.8%. Moreover, the inhibition at 100 µM in the assay with HCT116 cells amounted to 99.5%.
Taken in the same sequence, the figures for `CC(C)(C)c1ccc2[nH]c3c(c2c1)CN(c1ncc(C(=O)NO)cn1)CC3` [Example 39, N-hydroxy-2-{8-tert-butyl-1,3,4,5-tetrahydro-2H-pyrido[4,3-b]indol-2-yl}pyrimidine-5-carboxamide] were 98.8% and 99.4%.
Taken in the same sequence, the figures for `COc1ccc(-c2ccc3[nH]c4c(c3c2)CN(c2ncc(C(=O)NO)cn2)CC4)cc1` [Example 40, N-hydroxy-2-{8-[4-methoxyphenyl]-1,3,4,5-tetrahydro-2H-pyrido[4,3-b]indol-2-yl}pyrimidine-5-carboxamide] were 99.8% and 98.3%.
Taken in the same sequence, the figures for `Cc1ccc(-c2ccc3[nH]c4c(c3c2)CN(c2ncc(C(=O)NO)cn2)CC4)cc1` [Example 41, N-hydroxy-2-{8-[4-methylphenyl]-1,3,4,5-tetrahydro-2H-pyrido[4,3-b]indol-2-yl}pyrimidine-5-carboxamide] were 99.6% and 98.7%.
For the molecule `O=C(NO)c1cnc(N2CCc3[nH]c4ccc(-c5cccc(CO)c5)cc4c3C2)nc1` [Example 43, N-hydroxy-2-{8-[3-(hydroxymethyl)phenyl]-1,3,4,5-tetrahydro-2H-pyrido[4,3-b]indol-2-yl}pyrimidine-5-carboxamide], the “% Inhibition of HDAC @ 100 μM” value in the assay on HDAC is 100%. Moreover, the inhibition at 100 µM with HCT116 cells is 98.7%.
The matching figures for `O=C(NO)c1cnc(N2CCc3[nH]c4ccc(-c5cccc(F)c5)cc4c3C2)nc1` [Example 44, N-hydroxy-2-{8-[3-fluorophenyl]-1,3,4,5-tetrahydro-2H-pyrido[4,3-b]indol-2-yl}pyrimidine-5-carboxamide]: 99.9% and 97.6%.
For `O=C(NO)c1cnc(N2CCc3[nH]c4ccc(-c5ccc(F)cc5)cc4c3C2)nc1` [Example 45, N-hydroxy-2-{8-[4-fluorophenyl]-1,3,4,5-tetrahydro-2H-pyrido[4,3-b]indol-2-yl}pyrimidine-5-carboxamide], in the assay on HDAC, the “% Inhibition of HDAC @ 100 μM” value is recorded as 99.9%. In addition, the inhibition at 100 µM in the assay with HCT116 cells is 98.9%.
Taken in the same sequence, the figures for `O=C(NO)c1cnc(N2CCc3[nH]c4ccc(-c5ccco5)cc4c3C2)nc1` [Example 46, N-hydroxy-2-{8-(fur-2-yl)-1,3,4,5-tetrahydro-2H-pyrido[4,3-b]indol-2-yl}pyrimidine-5-carboxamide] were 99.8% and 98.6%.
Taken in the same sequence, the figures for `CN(C)c1ccc(-c2ccc3[nH]c4c(c3c2)CN(c2ncc(C(=O)NO)cn2)CC4)cc1` [Example 48, N-hydroxy-2-{8-[4-dimethylaminophenyl]-1,3,4,5-tetrahydro-2H-pyrido[4,3-b]indol-2-yl}pyrimidine-5-carboxamide] were 99.7% and 97.8%.

These data come from patent US7772245B2, “Inhibitors of histone deacetylase” (Miikana Therapeutics, Inc., priority 2005, dated 2010).
